Reference: patent US9492471B2, “Methods of treating a disease or disorder associated with Bruton'S Tyrosine Kinase” (Celgene Avilomics Research, Inc., priority 2013, dated 2016)
Like-named read-outs stand apart in the source and are kept apart here.

How the values were obtained:
Assay in all cases: HotSpot kinase profiling
Format in all cases: biochemical
CAMK1a = biological target: T1, CAMK1a (Homo sapiens, UniProt Q14012)
T1 construct: purchased Reaction Biology Corp
Outline: (§1)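 Radio-isotope P81 filtration format. Substrate + required cofactors in reaction buffer, kinase added, 2 h RT. Stop, wash with 0.1% phosphoric acid, detect. % inhibition vs DMSO; mean of duplicates where repeated.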

STK39/STLK3 = biological target: T2, STK39/STLK3 (Homo sapiens, UniProt Q9UEW8)
T2 construct: purchased Reaction Biology Corp
Outline: as §1

NEK9 = biological target: T3, NEK9 (Homo sapiens, UniProt Q8TD19)
T3 construct: purchased Reaction Biology Corp
T3 sequence (Q8TD19 1-979): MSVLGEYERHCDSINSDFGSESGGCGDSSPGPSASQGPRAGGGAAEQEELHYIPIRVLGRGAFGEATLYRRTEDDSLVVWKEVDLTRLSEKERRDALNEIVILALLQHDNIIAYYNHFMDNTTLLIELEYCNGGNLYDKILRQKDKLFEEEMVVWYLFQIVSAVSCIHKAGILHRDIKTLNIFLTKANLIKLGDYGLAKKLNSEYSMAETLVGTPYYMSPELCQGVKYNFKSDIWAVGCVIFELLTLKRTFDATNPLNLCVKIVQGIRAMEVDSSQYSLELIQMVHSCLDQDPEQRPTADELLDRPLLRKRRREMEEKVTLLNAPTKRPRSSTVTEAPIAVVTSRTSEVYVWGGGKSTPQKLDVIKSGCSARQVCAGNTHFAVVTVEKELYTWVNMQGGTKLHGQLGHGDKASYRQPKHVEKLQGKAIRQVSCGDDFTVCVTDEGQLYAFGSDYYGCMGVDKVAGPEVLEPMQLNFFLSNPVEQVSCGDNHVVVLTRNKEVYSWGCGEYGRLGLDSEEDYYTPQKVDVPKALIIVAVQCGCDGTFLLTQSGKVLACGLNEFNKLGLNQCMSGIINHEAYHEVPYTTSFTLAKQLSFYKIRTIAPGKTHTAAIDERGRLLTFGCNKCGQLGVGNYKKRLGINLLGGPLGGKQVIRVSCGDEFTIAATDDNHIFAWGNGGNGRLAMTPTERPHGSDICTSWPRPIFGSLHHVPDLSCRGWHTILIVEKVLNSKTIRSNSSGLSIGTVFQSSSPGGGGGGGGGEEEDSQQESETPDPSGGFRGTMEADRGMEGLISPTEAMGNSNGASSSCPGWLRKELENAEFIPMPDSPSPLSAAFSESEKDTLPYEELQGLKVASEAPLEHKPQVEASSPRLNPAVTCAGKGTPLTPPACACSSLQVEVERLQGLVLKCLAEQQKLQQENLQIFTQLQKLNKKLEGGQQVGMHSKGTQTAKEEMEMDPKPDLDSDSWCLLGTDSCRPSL
Outline: as §1

MKK4 = biological target: T4, MKK4 (Homo sapiens, UniProt P45985)
T4 construct: purchased Reaction Biology Corp
T4 sequence (P45985 1-399): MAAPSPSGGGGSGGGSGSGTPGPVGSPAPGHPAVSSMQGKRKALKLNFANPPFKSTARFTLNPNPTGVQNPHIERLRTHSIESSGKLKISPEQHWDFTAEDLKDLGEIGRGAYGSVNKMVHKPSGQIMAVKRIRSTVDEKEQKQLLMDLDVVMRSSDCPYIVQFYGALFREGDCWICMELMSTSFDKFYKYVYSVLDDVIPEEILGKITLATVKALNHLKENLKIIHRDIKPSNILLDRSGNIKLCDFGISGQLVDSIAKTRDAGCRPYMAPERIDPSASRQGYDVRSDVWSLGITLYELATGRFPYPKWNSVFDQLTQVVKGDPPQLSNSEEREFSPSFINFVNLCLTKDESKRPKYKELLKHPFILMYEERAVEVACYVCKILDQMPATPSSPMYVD
Outline: as §1

ERK1 = biological target: T5, ERK1 (Homo sapiens, UniProt P27361)
T5 construct: purchased Reaction Biology Corp
T5 sequence (P27361 whole entry): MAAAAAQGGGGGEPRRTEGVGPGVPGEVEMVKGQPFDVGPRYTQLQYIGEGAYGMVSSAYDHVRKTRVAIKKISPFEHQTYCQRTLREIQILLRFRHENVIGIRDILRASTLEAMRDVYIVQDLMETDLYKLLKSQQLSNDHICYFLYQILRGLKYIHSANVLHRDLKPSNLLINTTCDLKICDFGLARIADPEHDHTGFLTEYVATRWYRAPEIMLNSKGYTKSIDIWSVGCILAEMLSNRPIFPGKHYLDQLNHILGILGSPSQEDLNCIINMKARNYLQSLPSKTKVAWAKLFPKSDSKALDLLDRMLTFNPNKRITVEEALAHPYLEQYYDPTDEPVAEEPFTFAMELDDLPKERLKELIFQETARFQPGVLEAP
Outline: as §1

CDK1/cyclin B = biological target: T6, CDK1/cyclin B (Homo sapiens, UniProt P06493)
T6 construct: purchased Reaction Biology Corp
T6 sequence (P06493 whole entry): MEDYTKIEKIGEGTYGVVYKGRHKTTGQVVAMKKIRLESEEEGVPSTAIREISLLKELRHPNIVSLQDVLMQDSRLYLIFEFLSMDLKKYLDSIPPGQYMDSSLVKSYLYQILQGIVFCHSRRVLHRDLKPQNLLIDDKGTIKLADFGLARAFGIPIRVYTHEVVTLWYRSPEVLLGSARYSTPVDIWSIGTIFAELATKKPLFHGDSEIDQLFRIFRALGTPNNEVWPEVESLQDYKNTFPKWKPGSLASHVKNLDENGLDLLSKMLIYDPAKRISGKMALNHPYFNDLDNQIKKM
T6 sequence (P14635 whole entry partner): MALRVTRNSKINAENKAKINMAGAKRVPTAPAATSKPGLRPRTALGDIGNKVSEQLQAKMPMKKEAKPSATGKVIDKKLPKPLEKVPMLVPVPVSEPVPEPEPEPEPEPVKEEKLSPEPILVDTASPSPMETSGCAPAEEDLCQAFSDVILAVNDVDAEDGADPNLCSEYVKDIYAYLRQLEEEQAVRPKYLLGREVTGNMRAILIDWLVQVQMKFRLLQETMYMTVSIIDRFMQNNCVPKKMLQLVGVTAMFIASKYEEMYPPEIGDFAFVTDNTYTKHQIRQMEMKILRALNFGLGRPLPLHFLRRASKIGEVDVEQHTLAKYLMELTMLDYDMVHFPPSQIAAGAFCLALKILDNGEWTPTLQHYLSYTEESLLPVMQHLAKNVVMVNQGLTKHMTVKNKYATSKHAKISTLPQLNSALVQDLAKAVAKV
Outline: as §1

PKN1/PRK1 = biological target: T7, PKN1/PRK1 (Homo sapiens, UniProt Q16512)
T7 construct: purchased Reaction Biology Corp
T7 sequence (Q16512 whole entry): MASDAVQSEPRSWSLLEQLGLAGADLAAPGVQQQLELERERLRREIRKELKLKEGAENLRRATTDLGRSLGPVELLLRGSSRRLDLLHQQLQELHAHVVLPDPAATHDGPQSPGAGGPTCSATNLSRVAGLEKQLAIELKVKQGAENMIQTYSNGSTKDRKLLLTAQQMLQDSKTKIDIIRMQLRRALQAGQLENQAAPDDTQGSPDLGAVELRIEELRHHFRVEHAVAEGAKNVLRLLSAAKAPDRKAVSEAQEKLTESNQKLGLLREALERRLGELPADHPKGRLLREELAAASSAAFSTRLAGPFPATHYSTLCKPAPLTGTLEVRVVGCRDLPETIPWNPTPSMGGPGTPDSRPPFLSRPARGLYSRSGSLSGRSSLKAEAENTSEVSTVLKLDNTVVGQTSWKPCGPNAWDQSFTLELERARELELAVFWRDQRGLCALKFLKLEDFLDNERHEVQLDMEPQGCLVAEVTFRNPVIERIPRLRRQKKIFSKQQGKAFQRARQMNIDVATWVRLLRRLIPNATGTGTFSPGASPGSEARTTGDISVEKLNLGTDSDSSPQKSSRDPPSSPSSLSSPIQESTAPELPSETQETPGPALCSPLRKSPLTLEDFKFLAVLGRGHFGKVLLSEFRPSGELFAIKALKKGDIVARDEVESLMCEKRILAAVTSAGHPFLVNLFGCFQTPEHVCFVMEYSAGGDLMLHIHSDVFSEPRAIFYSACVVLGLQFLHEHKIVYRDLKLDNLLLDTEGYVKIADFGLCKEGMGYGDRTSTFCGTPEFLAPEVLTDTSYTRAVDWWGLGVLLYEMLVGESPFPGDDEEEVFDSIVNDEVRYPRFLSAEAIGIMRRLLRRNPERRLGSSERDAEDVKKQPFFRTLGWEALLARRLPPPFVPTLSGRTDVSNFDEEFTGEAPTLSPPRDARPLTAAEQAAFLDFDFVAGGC
Outline: as §1

RIPK2 = biological target: T8, RIPK2 (Homo sapiens, UniProt O43353)
T8 construct: purchased Reaction Biology Corp
T8 sequence (O43353 whole entry): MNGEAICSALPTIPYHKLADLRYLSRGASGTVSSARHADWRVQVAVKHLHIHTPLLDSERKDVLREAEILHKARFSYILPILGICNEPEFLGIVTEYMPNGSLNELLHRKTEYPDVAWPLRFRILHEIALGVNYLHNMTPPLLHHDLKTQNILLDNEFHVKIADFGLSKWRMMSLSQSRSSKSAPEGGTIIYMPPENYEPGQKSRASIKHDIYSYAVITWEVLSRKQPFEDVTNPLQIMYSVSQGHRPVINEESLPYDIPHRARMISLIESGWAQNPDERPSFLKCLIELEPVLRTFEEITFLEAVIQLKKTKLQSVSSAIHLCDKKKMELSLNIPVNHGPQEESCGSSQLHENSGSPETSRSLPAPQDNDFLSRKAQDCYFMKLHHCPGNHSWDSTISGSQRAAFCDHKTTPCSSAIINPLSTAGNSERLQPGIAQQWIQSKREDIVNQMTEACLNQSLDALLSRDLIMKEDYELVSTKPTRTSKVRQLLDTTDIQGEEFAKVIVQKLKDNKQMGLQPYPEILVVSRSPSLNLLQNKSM
Outline: as §1

LOK/STK10 = biological target: T9, LOK/STK10 (Homo sapiens, UniProt O94804)
T9 construct: purchased Reaction Biology Corp
T9 sequence (O94804 whole entry): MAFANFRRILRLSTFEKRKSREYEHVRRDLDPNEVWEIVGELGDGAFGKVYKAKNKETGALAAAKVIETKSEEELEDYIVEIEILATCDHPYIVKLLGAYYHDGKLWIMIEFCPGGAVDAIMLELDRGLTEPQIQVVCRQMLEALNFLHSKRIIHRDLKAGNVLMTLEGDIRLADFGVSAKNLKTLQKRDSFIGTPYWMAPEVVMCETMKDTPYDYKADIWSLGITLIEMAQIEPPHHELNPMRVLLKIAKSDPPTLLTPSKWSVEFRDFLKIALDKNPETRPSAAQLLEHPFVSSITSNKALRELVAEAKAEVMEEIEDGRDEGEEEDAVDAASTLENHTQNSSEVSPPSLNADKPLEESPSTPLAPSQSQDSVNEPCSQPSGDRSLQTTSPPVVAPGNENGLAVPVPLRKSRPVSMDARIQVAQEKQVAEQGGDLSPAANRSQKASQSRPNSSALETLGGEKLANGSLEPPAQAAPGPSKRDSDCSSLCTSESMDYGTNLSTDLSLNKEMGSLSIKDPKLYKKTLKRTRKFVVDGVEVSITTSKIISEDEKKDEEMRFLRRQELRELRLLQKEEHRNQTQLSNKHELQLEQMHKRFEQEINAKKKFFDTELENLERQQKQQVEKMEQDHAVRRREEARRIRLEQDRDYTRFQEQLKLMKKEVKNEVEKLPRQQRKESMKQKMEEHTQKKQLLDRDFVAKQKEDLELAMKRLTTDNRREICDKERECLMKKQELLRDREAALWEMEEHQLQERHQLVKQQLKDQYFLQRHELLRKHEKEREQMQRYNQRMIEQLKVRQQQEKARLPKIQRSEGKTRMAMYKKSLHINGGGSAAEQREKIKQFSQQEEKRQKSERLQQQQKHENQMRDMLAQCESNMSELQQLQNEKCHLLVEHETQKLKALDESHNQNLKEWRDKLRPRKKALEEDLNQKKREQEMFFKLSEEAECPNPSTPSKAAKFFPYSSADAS
Outline: as §1

[1] = read-out: % Enzyme Activity (relative to DMSO controls) Run 1
[2] = read-out: % Enzyme Activity (relative to DMSO controls) Run 2

T1 sequence (Q14012 whole entry): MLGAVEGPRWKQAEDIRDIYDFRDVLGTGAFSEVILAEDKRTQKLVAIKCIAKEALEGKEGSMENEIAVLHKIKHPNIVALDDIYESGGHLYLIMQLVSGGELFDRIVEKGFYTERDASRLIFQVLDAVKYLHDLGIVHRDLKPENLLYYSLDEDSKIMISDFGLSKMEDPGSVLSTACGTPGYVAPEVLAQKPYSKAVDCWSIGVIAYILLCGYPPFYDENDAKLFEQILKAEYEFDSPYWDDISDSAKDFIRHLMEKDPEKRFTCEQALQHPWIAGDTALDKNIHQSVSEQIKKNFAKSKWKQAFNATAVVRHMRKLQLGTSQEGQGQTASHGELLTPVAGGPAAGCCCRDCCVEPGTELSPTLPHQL

With C=CC(=O)Nc1cccc(Nc2nc(Nc3ccc(OCCOC)c(F)c3)ncc2F)c1 [Compound 2] the inhibition at 3 µM (CAMK1a) was -10.4%, the remaining activity at 3 µM (CAMK1a; [1]) was 109% and the remaining activity at 3 µM (CAMK1a; [2]) was 112%. It also gave an inhibition at 3 µM (STK39/STLK3) of 7.74%, a remaining activity at 3 µM (STK39/STLK3; [1]) of 91.6% and a remaining activity at 3 µM (STK39/STLK3; [2]) of 92.9%. It also gave an inhibition at 3 µM (NEK9) of 15.9%, a remaining activity at 3 µM (NEK9; [1]) of 83.8% and a remaining activity at 3 µM (NEK9; [2]) of 84.3%. The inhibition at 3 µM (MKK4) was -16.6%, the remaining activity at 3 µM (MKK4; [1]) was 117% and the remaining activity at 3 µM (MKK4; [2]) was 116%. It also gave an inhibition at 3 µM (ERK1) of 1.32%, a remaining activity at 3 µM (ERK1; [1]) of 97.4% and a remaining activity at 3 µM (ERK1; [2]) of 99.9%. It also gave an inhibition at 3 µM (CDK1/cyclin B) of 12.9%, a remaining activity at 3 µM (CDK1/cyclin B; [1]) of 87.2% and a remaining activity at 3 µM (CDK1/cyclin B; [2]) of 87%. The inhibition at 3 µM (PKN1/PRK1) was 6.94%, the remaining activity at 3 µM (PKN1/PRK1; [1]) was 93.8% and the remaining activity at 3 µM (PKN1/PRK1; [2]) was 92.3%. For the same compound, the inhibition at 3 µM (RIPK2) was 23.7%, the remaining activity at 3 µM (RIPK2; [1]) was 77.6% and the remaining activity at 3 µM (RIPK2; [2]) was 75%. The inhibition at 3 µM (LOK/STK10) was 56.9%, the remaining activity at 3 µM (LOK/STK10; [1]) was 43.1% and the remaining activity at 3 µM (LOK/STK10; [2]) was 43%.
